Laboratory results as given in patent publication US10376518B2, “Methods for the treatment of autoimmune diseases” (UCL Business PLC, priority 2013, dated 2019).

What was measured:
[1] = tested on: FOXP3 expression by CD8+ T cells; assay: CD8+FOXP3+ Treg induction in PBMC cultures, flow cytometry; format: cell-based, human; details: for FOXP3 expression by CD8+ T cells: 24 h
Description: Isolation of cell populations. PBMC were isolated by Ficoll-Paque Plus (GE Healthcare) gradient centrifugation, resuspended to 10^7 cells/ml in FCS (Biosera) and 5% DMSO (Sigma-Aldrich), and frozen until subsequent use. CD8^+ T cells were negatively isolated and monocytes, CD4^+ T cells or B cells were depleted from PBMCs by positive selection with magnetic beads (Miltenyi, Biotec). Monocyte subsets or CD8^+ T cells interacting with monocytes were FACS sorted with the FACSAria (Beckton, Dickinson) based on expression of HLA-DR and CD14 or CD8 respectively.
(§1) Cell Cultures. For CD8^+FoxP3^+ Treg induction, PBMC were cultured with anti-CD3 mAb (OKT3 (e-bioscience), HIT3A (e-bioscience), UCHT1 (e-bioscience), Otelixizumab (GSK)) or anti-CD3 F(Ab)2 (GSK) in RPMI1640, (Sigma-Aldrich), 10% fetal calf serum (Biosera) or human serum type AB (Lonza), 100 U/mg/ml penicillin/streptomycin (Sigma-Aldrich) for 24 h or 5 d. Alternatively, 1 μg/ml of agonist antibodies against CD28 (e-bioscience) or TNFRII (Hycult Biotech) in combination with OKT3 were utilized in PBMC cultures depleted of monocytes. For cytokine neutralization cultures, PBMC were cultured with OKT3 alone or in the presence of an isotype control or 10 μg/ml anti-TNF-α (R&D systems) or anti-IL-1β mAbs (R&D systems), 12.5 μg/ml anti-TGF-β mAb (R&D systems) or 0.1 μg/ml anti-IL-6 mAb (R&D systems). To inhibit monocyte activation of CD8^+ T cells, 10 μg/ml anti-CD80 (R&D systems) or anti-CD86 (R&D systems) were utilized. To convert a non-responder CD8^+ T cell into a responder, whole PBMC were incubated with 10 μg/ml TAPI (Enzo Life Sciences) for 1 h at room temperature, or with 5 μM selective p38 MAPK inhibitor, BIRB 796 (Merck Millipore), for 2 hours at 37° C. before culture with OKT3.
Flow cytometry and soluble cytokine detection. Cell surface staining and intracellular staining were performed using the eBioscience FOXP3 staining buffer set as per manufacturers' instructions. For CD8^+ T cell staining, CD8-FITC and CD4-V450 were used to identify a pure CD8^+ T cell population. CD25-PECy7, TNFRII-APC, CTLA-4-PE, TGFβ-APC were used for characterization. For monocyte and B cells staining, CD14-APC, CD16-PE, HLA-DR-PECy7, CD19-APC were used in combination with membrane TNFα-PE. FOXP3-PE was used to detect intracellular FOXP3. For analysis of human intracellular cytokine production, PBMC were stimulated for 4 h with 50 ng/ml PMA, 250 ng/ml ionomycin (Sigma-Aldrich), and Golgi-Plug (BD, Biosciences) in complete medium. IFN-γ-PECy7, IL-10-APC, IL-2-APC, IL-17-APC, TNF-α-APC and appropriate isotype controls were utilized. For staining of membrane TNF-α versus soluble TNF-α production by monocytes, PBMC were cultured with anti-CD3 mAb alone, or after pre-incubation with TAPI, for 24 h. Supernatants were subsequently removed and replaced with the aforementioned stimulation mix for 4 h. PBMC were then stained for CD14-APC and membrane TNF-α-PE, before intracellular staining for TNF-α-FITC. Data were acquired on an LSRII (Beckton, Dickinson) and analyzed with FlowJo (TreeStar). IL-17 and IFN-γ levels from suppression assay supernatants were measured by mosaic ELISA (R&D Systems) as described by manufacturer's instruction and analyzed by Quansys Q-View™ Software (R&D Systems).

[2] = tested on: membrane TNF-α expression by monocytes; assay: membrane TNF-α staining of monocytes in PBMC, flow cytometry; format: cell-based, human; details: PBMC pre-incubated 1 h at room temperature, 10 μg/ml
Protocol: as §1, with “To convert a non-responder CD8^+ T cell into a responder, whole PBMC were incubated with 10 μg/ml TAPI (Enzo Life Sciences) for 1 h at room temperature, or with 5 μM selective p38 MAPK inhibitor, BIRB 796 (Merck Millipore), for 2 hours at 37° C. before culture with OKT3.” left out
Flow cytometry and soluble cytokine detection. […] Data were acquired on an LSRII (Beckton, Dickinson) and analyzed with FlowJo (TreeStar). IL-17 and IFN-γ levels from suppression assay supernatants were measured by mosaic ELISA (R&D Systems) as described by manufacturer's instruction and analyzed by Quansys Q-View™ Software (R&D Systems).

[3] = fixed monocytes reintroduced to autologous monocyte-depleted PBMC

Cc1ccc(-n2nc(C(C)(C)C)cc2NC(=O)Nc2ccc(OCCN3CCOCC3)c3ccccc23)cc1 [BIRB 796]
FOXP3 expression by CD8+ T cells that did not initially respond to CD3-specific stimulation ([1]; RA PBMC pre-incubated 5 μM, 2 h, 37° C., then OKT3 24 h, non-responders): resulted in FOXP3 expression | response of CD8+ T cells that could already induce FOXP3 expression ([1]; RA PBMC pre-incubated 5 μM, 2 h, 37° C., then OKT3 24 h, responders): did not alter the response

F(Ab)2 of Otelixizumab: F(Ab)2 fragment of the anti-CD3 antibody Otelixizumab (GSK)
FOXP3 expression by CD8+ T cells [1, 3]: successfully induced FOXP3 expression

OKT3: anti-CD3 mAb clone (e-bioscience)
FOXP3 expression by CD8+ T cells [1, 3]: successfully induced FOXP3 expression | FOXP3 expression by CD8+ T cells ([1]; whole RA PBMC, 1 μg/ml): successfully increased levels of FOXP3 expression

TAPI
maximal induction of CD8+FOXP3+ Treg from prior non-responders ([1]; RA PBMC pre-incubated with TAPI, then anti-CD3 mAb 24 h): approximately 50% | induction of CD8+FOXP3+ Treg in healthy individuals ([1]; healthy PBMC pre-incubated with TAPI, then OKT3 24 h): this effect was not observed in healthy individuals | expression of membrane TNF-α by monocytes [2]: increased expression of membrane TNF-α by monocytes
